Patent publication US12351581B2, “Compounds for FGFR inhibition” (Cogent Biosciences, Inc., priority 2023, dated 2025)
Read-outs that look alike come from different tables or passages of the source.

Assays:
FGFR2 N549H = biological target: T1, FGFR2 N549H (Homo sapiens, UniProt P21802, N549H); assay: FGFR mutant enzyme assay (HTRF KinEASE-TK); type: biochemical; settings: ATP 0.9 uM
T1 construct: biochemical assays using purified intracellular domains of the respective isoforms; purchased Carna Bioscience 08-532
T1 sequence (P21802 399-821 N549H limits assumed): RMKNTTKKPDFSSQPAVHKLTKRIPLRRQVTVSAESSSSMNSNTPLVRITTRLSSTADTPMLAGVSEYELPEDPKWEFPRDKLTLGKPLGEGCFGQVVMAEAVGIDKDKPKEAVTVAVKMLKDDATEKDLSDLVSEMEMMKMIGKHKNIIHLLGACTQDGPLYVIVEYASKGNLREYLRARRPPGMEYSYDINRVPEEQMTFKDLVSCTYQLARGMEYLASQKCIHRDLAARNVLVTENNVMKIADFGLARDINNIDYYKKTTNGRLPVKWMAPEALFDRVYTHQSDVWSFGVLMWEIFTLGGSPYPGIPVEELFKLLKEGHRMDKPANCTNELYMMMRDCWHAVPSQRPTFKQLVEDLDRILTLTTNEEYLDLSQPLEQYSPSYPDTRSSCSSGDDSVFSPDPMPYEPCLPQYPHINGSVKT
Method in brief: (§1)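 Purified intracellular kinase domains, enzyme pre-incubated 30 min with compound (11-point 1:3 dilutions, typically 10,000-0.17 nM), then ATP plus 0.5 uM TK-peptide, 60 min at room temperature in HEPES pH7.5 with Mg2+/Mn2+. HTRF 665/615 ratio converted to percent of control; IC50 from four-parameter logistic fit.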

FGFR2 V564I = biological target: T2, FGFR2 V564I (Homo sapiens, UniProt P21802, V564I); assay: FGFR mutant enzyme assay (HTRF KinEASE-TK); type: biochemical; settings: ATP 0.4 uM
T2 construct: biochemical assays using purified intracellular domains of the respective isoforms; purchased Carna Bioscience 08-546
T2 sequence (P21802 399-821 V564I limits assumed): as the sequence (P21802 399-821 N549H limits assumed) above, with H151N, V166I counted along it
Method in brief: as §1

FGFR2 V564F = biological target: T3, FGFR2 V564F (Homo sapiens, UniProt P21802, V564F); assay: FGFR mutant enzyme assay (HTRF KinEASE-TK); type: biochemical; settings: ATP 1.5 uM
T3 construct: biochemical assays using purified intracellular domains of the respective isoforms; purchased SignalChem Biotech F05-12FG
T3 sequence (P21802 399-821 V564F limits assumed): as the sequence (P21802 399-821 N549H limits assumed) above, with H151N, V166F counted along it
Method in brief: as §1

FGFR2 = biological target: T4, FGFR2 (Homo sapiens, UniProt P21802); assay: FGFR wild type enzyme assay (HTRF KinEASE-TK); type: biochemical; settings: ATP 2 uM
T4 construct: biochemical assays using purified intracellular domains of the respective isoforms; purchased Carna Bioscience 08-134
T4 sequence (P21802 399-821 limits assumed): as the sequence (P21802 399-821 N549H limits assumed) above, with H151N counted along it
Method in brief: as §1

FGFR2-WT = FGFR2-WT (Homo sapiens, UniProt P21802); assay: Phosphorylated FGFR2-WT (pFGFR2-WT) cell assay, KATOIII cells; type: cell-based; settings: 1 hour incubation, phospho FGFR2 HTRF
FGFR2-WT, sequence (P21802 430-767 limits assumed): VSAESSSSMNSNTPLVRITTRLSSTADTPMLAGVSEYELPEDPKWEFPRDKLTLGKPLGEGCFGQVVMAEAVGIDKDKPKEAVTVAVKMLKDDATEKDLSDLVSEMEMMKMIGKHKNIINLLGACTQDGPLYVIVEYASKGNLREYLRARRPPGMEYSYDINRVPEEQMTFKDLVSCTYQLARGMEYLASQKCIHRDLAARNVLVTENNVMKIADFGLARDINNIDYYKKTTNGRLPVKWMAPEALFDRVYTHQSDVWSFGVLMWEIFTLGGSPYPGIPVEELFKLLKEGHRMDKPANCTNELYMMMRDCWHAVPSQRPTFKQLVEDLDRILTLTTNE
Method in brief: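 KATOIII cells treated 1 h at 37 °C with threefold compound dilutions (10 μM to 0.5 nM). Lysate phospho-FGFR2 (Tyr653/654) read by HTRF.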

[1] = compound table after the examples, read-out: Enz FGFR2

SMILES | IC50 (FGFR2 N549H) | IC50 (FGFR2 V564I) | IC50 (FGFR2 V564F) | IC50 (FGFR2; Table 3, read-out: FGFR2 Enz) | IC50 (FGFR2; [1]) | IC50 (FGFR2-WT)
Cc1c(-c2cc(O[C@H](C)c3ccc(F)cn3)c3c(C#N)cnn3c2)cnn1[C@@H]1CCCN(C(=O)[C@H](C)O)C1 [Compound 49, 4-((R)-1-(5-fluoropyridin-2-yl)ethoxy)-6-(1-((R)-1-((S)-2-hydroxypropanoyl)piperidin-3-yl)-5-methyl-1H-pyrazol-4-yl)pyrazolo[1,5-a]pyridine-3-carbonitrile] | 3 nM | 10 nM | 8 nM | 2.6 nM | 2.6 nM | 15 nM
Cc1c(-c2cc(O[C@H](C)c3ccc(F)cn3)c3c(C#N)cnn3c2)cnn1[C@H]1CC[C@H](OC(=O)[C@@H](N)C(C)C)CC1 [Compound 53, (1R,4S)-4-(4-(3-cyano-4-((R)-1-(5-fluoropyridin-2-yl)ethoxy)pyrazolo[1,5-a]pyridin-6-yl)-5-methyl-1H-pyrazol-1-yl)cyclohexyl L-valinate] | 0.5 nM | 1.5 nM | 1 nM | 0.3 nM | 0.3 nM | 3 nM
Cc1c(-c2cc(O[C@H](C)c3cccnc3)c3c(C#N)cnn3c2)cnn1[C@H]1CC[C@H](O)CC1 [Compound 54, 6-(1-((1r,4R)-4-hydroxycyclohexyl)-5-methyl-1H-pyrazol-4-yl)-4-((R)-1-(pyridin-3-yl)ethoxy)pyrazolo[1,5-a]pyridine-3-carbonitrile] | 0.5 nM | 1 nM | 1 nM | 0.4 nM | 0.4 nM | 12 nM
C[C@@H](Oc1cc(-c2cnn([C@H]3CC[C@H](O)CC3)c2)cn2ncc(C#N)c12)c1ccc(F)cn1 [Compound 55, 4-((R)-1-(5-fluoropyridin-2-yl)ethoxy)-6-(1-((1r,4R)-4-hydroxycyclohexyl)-1H-pyrazol-4-yl)pyrazolo[1,5-a]pyridine-3-carbonitrile] | 0.13 nM | 0.6 nM | 0.3 nM | 0.2 nM | 0.2 nM | 1.6 nM
C[C@@H](Oc1cc(-c2ccc(N3CCC(O)CC3)nc2)cn2ncc(C#N)c12)c1ccc(F)cn1 [Compound 56, (R)-4-(1-(5-fluoropyridin-2-yl)ethoxy)-6-(6-(4-hydroxypiperidin-1-yl)pyridin-3-yl)pyrazolo[1,5-a]pyridine-3-carbonitrile] | 0.2 nM | 1 nM | 0.6 nM | 0.2 nM | 0.2 nM | 3.4 nM
CN=S1(=O)CCC(n2cc(-c3cc(O[C@H](C)c4ccc(F)cn4)c4c(C#N)cnn4c3)cn2)CC1 (stereo partly drawn) [Compound 58, (R)-4-(1-(5-fluoropyridin-2-yl)ethoxy)-6-(1-(1-(methylimino)-1-oxidohexahydro-116-thiopyran-4-yl)-1H-pyrazol-4-yl)pyrazolo[1,5-a]pyridine-3-carbonitrile] | 0.15 nM | 1 nM | 0.45 nM | 0.15 nM | 0.15 nM | 1.6 nM
Cc1c(-c2cc(O[C@H](C)c3ccc(F)cn3)c3c(C#N)cnn3c2)nnn1[C@H]1CC[C@H](O)CC1 [Compound 59, 4-((R)-1-(5-fluoropyridin-2-yl)ethoxy)-6-(1-((1r,4R)-4-hydroxycyclohexyl)-5-methyl-1H-1,2,3-triazol-4-yl)pyrazolo[1,5-a]pyridine-3-carbonitrile] | 1 nM | 3 nM | 3 nM | 0.5 nM | 0.5 nM | 5.7 nM
Cc1c(-c2cc(O[C@H](C)c3ccc(F)cn3)c3c(C#N)cnn3c2)cnn1[C@H]1CCCC[C@@H]1O [Compound 61, 4-((R)-1-(5-fluoropyridin-2-yl)ethoxy)-6-(1-((1S,2S)-2-hydroxycyclohexyl)-5-methyl-1H-pyrazol-4-yl)pyrazolo[1,5-a]pyridine-3-carbonitrile] | 0.4 nM | 1.5 nM | 1 nM | 0.3 nM | 0.3 nM | 3 nM
Cc1c(-c2cc(O[C@H](C)c3ccc(F)cn3)c3c(C#N)cnn3c2)cnn1[C@@H]1CCCC[C@H]1O [Compound 62, 4-((R)-1-(5-fluoropyridin-2-yl)ethoxy)-6-(1-((1R,2R)-2-hydroxycyclohexyl)-5-methyl-1H-pyrazol-4-yl)pyrazolo[1,5-a]pyridine-3-carbonitrile] | 9 nM | 30 nM | 21.5 nM | 7 nM | 8 nM | 48 nM
C[C@@H](Oc1cc(-c2ccc(N3CC[C@H](O)[C@@H](O)C3)nc2)cn2ncc(C#N)c12)c1ccc(F)cn1 [Compound 63, 6-(6-((3S,4S)-3,4-dihydroxypiperidin-1-yl)pyridin-3-yl)-4-((R)-1-(5-fluoropyridin-2-yl)ethoxy)pyrazolo[1,5-a]pyridine-3-carbonitrile] | 0.3 nM | 1 nM | 1 nM | 0.3 nM | 0.3 nM | 3.3 nM
C[C@@H](Oc1cc(-c2ccc(N3CC[C@@H](O)[C@H](O)C3)nc2)cn2ncc(C#N)c12)c1ccc(F)cn1 [Compound 64, 6-(6-((3R,4R)-3,4-dihydroxypiperidin-1-yl)pyridin-3-yl)-4-((R)-1-(5-fluoropyridin-2-yl)ethoxy)pyrazolo[1,5-a]pyridine-3-carbonitrile] | 0.2 nM | 0.7 nM | 0.6 nM | 0.3 nM |  | 4 nM

Now from value to compound:

IC50 (FGFR2 N549H) | IC50 (FGFR2 V564I) | IC50 (FGFR2 V564F) | IC50 (FGFR2; Table 3, read-out: FGFR2 Enz) | IC50 (FGFR2; [1]) | IC50 (FGFR2-WT) | SMILES
6 nM | 20 nM | 11 nM | 5.5 nM | 5.5 nM | 57 nM | Cc1c(-c2cc(O[C@@H](C)c3ccc(F)cn3)c3c(C#N)cnn3c2)cnn1[C@H]1CC[C@@H](O)CC1 [Compound 50, 4-((S)-1-(5-fluoropyridin-2-yl)ethoxy)-6-(1-((1s,4R)-4-hydroxycyclohexyl)-5-methyl-1H-pyrazol-4-yl)pyrazolo[1,5-a]pyridine-3-carbonitrile]
1 nM | 4 nM | 2 nM | 1 nM | 1 nM | 6.5 nM | Cc1c(-c2cc(OC(C)c3ccc(F)cn3)c3c(C#N)cnn3c2)cnn1[C@H]1CC[C@H](O)CC1 (some centres unmarked) [Compound 51, 4-(1-(5-fluoropyridin-2-yl)ethoxy)-6-(1-((1r,4r)-4-hydroxycyclohexyl)-5-methyl-1H-pyrazol-4-yl)pyrazolo[1,5-a]pyridine-3-carbonitrile]
1 nM | 3 nM | 2.4 nM | 0.7 nM | 0.7 nM | 6 nM | Cc1c(-c2cc(OC(C)c3ccc(F)cn3)c3c(C#N)cnn3c2)cnn1[C@H]1CC[C@@H](O)CC1 (some centres unmarked) [Compound 52, 4-(1-(5-fluoropyridin-2-yl)ethoxy)-6-(1-((1s,4s)-4-hydroxycyclohexyl)-5-methyl-1H-pyrazol-4-yl)pyrazolo[1,5-a]pyridine-3-carbonitrile]
0.5 nM | 2 nM | 1.5 nM | 0.4 nM | 0.4 nM | 3.5 nM | CC[C@@H](Oc1cc(-c2cnn([C@H]3CC[C@H](O)CC3)c2C)cn2ncc(C#N)c12)c1ccc(F)cn1 [Compound 60, 4-((R)-1-(5-fluoropyridin-2-yl)propoxy)-6-(1-((1r,4R)-4-hydroxycyclohexyl)-5-methyl-1H-pyrazol-4-yl)pyrazolo[1,5-a]pyridine-3-carbonitrile]
3.5 nM | 10.6 nM | 9.5 nM | 3 nM | 3 nM | 21 nM | Cc1c(-c2cc(O[C@H](CO)c3ccc(F)cn3)c3c(C#N)cnn3c2)cnn1[C@H]1CC[C@H](O)CC1 [Compound 65, 4-((S)-1-(5-fluoropyridin-2-yl)-2-hydroxyethoxy)-6-(1-((1r,4S)-4-hydroxycyclohexyl)-5-methyl-1H-pyrazol-4-yl)pyrazolo[1,5-a]pyridine-3-carbonitrile]
106 nM | 369 nM | 139 nM | 105 nM | 110 nM | 793 nM | Cc1c(-c2cc(O[C@@H](CO)c3ccc(F)cn3)c3c(C#N)cnn3c2)cnn1[C@H]1CC[C@H](O)CC1 [Compound 66, 4-((R)-1-(5-fluoropyridin-2-yl)-2-hydroxyethoxy)-6-(1-((1r,4R)-4-hydroxycyclohexyl)-5-methyl-1H-pyrazol-4-yl)pyrazolo[1,5-a]pyridine-3-carbonitrile]
0.4 nM | 1.4 nM | 1 nM | 0.4 nM | 0.4 nM | 4 nM | Cc1c(-c2cc(O[C@H](C)c3ccc(F)cn3)c3c(C#N)cnn3c2)cnn1[C@H]1CCC[C@H](O)C1 [Compound 67, 4-((R)-1-(5-fluoropyridin-2-yl)ethoxy)-6-(1-((1S,3S)-3-hydroxycyclohexyl)-5-methyl-1H-pyrazol-4-yl)pyrazolo[1,5-a]pyridine-3-carbonitrile]
